Patent publication US6887879B2, “Pharmaceutical combination of antiviral agents” (priority 1999, dated 2005)
Where two headings read alike, the source gives them in different places.

What was measured:
[1] = Cytotoxicity, [3H]-thymidine uptake, DU145; assay type: cell-based; details: human, DU145 cells
Description: (§1) The cellular toxicity of the BCH compounds were assessed on various cells using [^3H]-thymidine uptake. The various cells, including Molt-4, HT1080, DU-145, HepG 2 and HSF, were plated at a concentration of 1-2×10^3 cells per well (96 well plates). However, PHA-stimulated PBMCs were cultured at a concentration of 4×10^4. After a 24 hr incubation period, 10-fold serial diluted compounds (10^−4 M to 10^−10 M) were added to the culture medium and the cells were further incubated for 72 hrs. [^3H]-thymidine was added during the final 18 hr incubation period. After incubation with the [^3H]-thymidine, the cells were washed once with PBS, treated with trypsin it the cells were adherent, and then resuspended in water (hypotonic lysing of cells) The cellular extract was applied directly to a Tomtec Harvester 96. Using this instrument the extracted DNA is adsorbed onto filters, washed and the incorporated [^3H]-thymidine is then counted.

[2] = Cytotoxicity, [3H]-thymidine uptake, HSF; assay type: cell-based; details: human, human skin fibroblasts (HSF)
Description: as §1

[3] = system: HIV-1IIIB; experiment: Anti-HIV-1 antiviral assay, laboratory strain HIV-1IIIB, RT activity in culture supernatants
Description: Most experiments were performed with a laboratory strain HIV-1III. […] The cells were incubated with virus using the indicated multiplicity of infection (MOI) for 2-3 hrs. The MOI used for each experiment was dependent upon the cell line and virus strain used, and was generally in the range of 0.005 to 0.5. For example, in assays performed using the established cell line MT-2, HIV-1IIIB at an MOI of 0.005 was used to infect cells. The unbound virus was then removed by washing the cells, followed by plating the cells into a 96-well plate. The infected cells were cultured in the presence of a serial concentrations of the test compound for 5-7 days. The anti-HIV-1 efficacy was determined by testing for HIV-1 RT activity in the cell culture supernatants. All assays were performed in duplicate and at least two independent experiments were performed. […] The susceptibilities of the HIV-1 variants to antiretroviral agents are expressed as the mean of the EC50 determinations.

[4] = Cytotoxicity, [3H]-thymidine uptake, HepG2; assay type: cell-based; details: human, HepG2 cells
Description: as §1

[5] = Cytotoxicity, [3H]-thymidine uptake, Molt-4; assay type: cell-based; details: human, Molt-4 cells
Description: as §1

[6] = Cytotoxicity, WST-1 cell viability assay; assay type: cell-based, human; details: human, CBMCs, MT-2, H9, Jurkat and U937 cells; WST-1 cell viability assay
Description: The cellular toxicity of the compounds was also tested by WST-1 staining through assessing proliferation of MT-2, H9, Jurkat, U937, and CBMCs. The established cell lines were cultured in RPMI medium in 96-well plates at a density of 5×10^4 cells/well while CBMCs were plated at a concentration of 0.5×10^6/well. A 10-fold serial diluted (10^−4−10^−7 M) compound was added at day zero. At day 4, the cells were passaged by changing half medium containing appropriately diluted compound. The cell activities were assessed at day 7 using the WST-1 reagent (Boehringer Mannheim) following the protocol provided by the supplier.

[7] = Cytotoxicity, [3H]-thymidine uptake, HT-1080; assay type: cell-based; details: human, HT-1080 cells
Description: as §1

[8] = molecular target: T1, wt HIV-1 RT (Human immunodeficiency virus type 1 group M subtype B, UniProt P04585); experiment: Chain elongation/termination assay; assay type: biochemical; details: for chain termination / full-length products, in words: HIV-PBS template, dPR primer, raising inhibitor concentration
T1 construct: Wild type (wt) version of recombinant HIV-1 RT were expressed with a histidine tag; histidine tag; made in house; host or cells: E. coli
Description: RT inhibition assay. The inhibition of HIV-1 RT RNA dependent DNA polymerase activity of DXG-TP was assessed under steady-state enzymatic kinetics by employing homopolymeric RNA templates/DNA primers (T/P) and a heteropolymeric RNA template/DNA primer. The heteropolymeric RNA template contains the HIV-1 primer binding sequence, US and R regions (designated as HIV-PBS). […] The oligodeoxynucleotide primer (dPR) is an 18-mer (5′-[…]-3′) which is complementary to the HIV-1 primer binding sequence. […] Inhibition of dNTP incorporation/chain termination. […] HIV-PBS RNA template and dPR DNA primer were used in this system. The RT reactions were performed in […] containing 50 mM Tris (pH 7.8), 75 mM KCl, 10 mM MgCl2, 100 μM of dNTPs. […] The reactions were allowed to proceed at 37° C. for 60 min in the presence or absence of inhibitors. The transcribed DNA products were separated on a 5% denaturing polyacrylamide gel and visualized by exposure to X-ray film.
The chain elongation/termination assay provides a method to directly visualize the products of incorporation of dideoxynucleotide monophosphates into nascent DNA by monitoring the reaction products using polyacrylamide gel electrophoresis. The experiment was performed using wt HIV-1 RT, and HIV-PBS heteropolymeric template, and [^32p]ATP labeled dPR primer in the presence of various concentrations of RT inhibitor. […] As comparison, NNRTI nevirapine was also used in the assay.

[9] = molecular target: T1, wt HIV-1 RT; experiment: RT inhibition assay, RNA dependent DNA polymerase activity; assay type: biochemical
Description: Wild type (wt) version of recombinant HIV-1 RT were expressed with a histidine tag in an E. coli protein expression system.
RT inhibition assay. The inhibition of HIV-1 RT RNA dependent DNA polymerase activity of DXG-TP was assessed under steady-state enzymatic kinetics by employing homopolymeric RNA templates/DNA primers (T/P) and a heteropolymeric RNA template/DNA primer. The heteropolymeric RNA template contains the HIV-1 primer binding sequence, US and R regions (designated as HIV-PBS). […] The oligodeoxynucleotide primer (dPR) is an 18-mer (5′-[…]-3′) which is complementary to the HIV-1 primer binding sequence. […] The reverse transcription reaction contained final concentrations of 50 mM Tris-HCl, pH 7.8, 60 mM KCl, 10 mM MgCl2, 0.1 U/ml homopolymeric T/P and 5 μM [^3H]dNTP substrate or 25 nM HIV-PBS/dPR and 5 μM each of dTTP, dCTP, dGTP and [-^32P]dATP in […]. […] Inhibition of dNTP incorporation/chain termination. The effect of DXG-TP on RT activity was also assessed using the chain termination/dNTP incorporation assay in which inhibition of nascent DNA synthesis (chain termination) was monitored based upon cDNA synthesis as previously described (Arts et al., 1993; J. Biol. Hem. 269:14672-14680 and Gu et al., 1995, Proc. Natl. Acad. Sci. USA 92:2760-2764). HIV-PBS RNA template and dPR DNA primer were used in this system. The RT reactions were performed in […] containing 50 mM Tris (pH 7.8), 75 mM KCl, 10 mM MgCl2, 100 μM of dNTPs. The HIV-PBS RNA template (50 nM) and [−^32P]-ATP labeled oligodeoxynucleotide primer (125 nM) were included in the reaction. The mixture was first denatured at 85° C. for 2 minutes, then cooled to 55° C. for 8 min, and finally cooled to 37° C. at which time recombinant HIV RT was added (42.5 nM). The reactions were allowed to proceed at 37° C. for 60 min in the presence or absence of inhibitors. The transcribed DNA products were separated on a 5% denaturing polyacrylamide gel and visualized by exposure to X-ray film.

[10] = Cytotoxicity, [3H]-thymidine uptake, PBMC; assay type: cell-based; details: human, PHA-stimulated PBMCs
Description: as §1

[11] = template/primer HIV-PBS/dPR, substrate dNTPs, each 5 μM
[12] = template/primer poly(rC).oligo(dG)12-15, substrate dGTP

In the case of `Cc1cn([C@H]2C[C@H](N=[N+]=[N-])[C@@H](CO)O2)c(=O)[nH]c1=O` [AZT, zidovudine, reference compound], the CC50 at 72 h [1] is reported as over 10 µM, the CC50 at 72 h [2] is reported as over 10 µM and the EC50 ([3]; Human immunodeficiency virus 1, Jurkat, read-out: EC50, mean values ± SD) is reported as 0.011 ± 0.007 µM. The EC50 ([3]; Human immunodeficiency virus 1, MT2, read-out: EC50, mean values ± SD) was 0.0076 ± 0.0044 µM, the EC50 ([3]; Human immunodeficiency virus 1, MT4, read-out: EC50, mean values ± SD) was 0.008 ± 0.005 µM and the EC50 ([3]; Human immunodeficiency virus 1, U-937) was 0.025 µM. The EC50 ([3]; Human immunodeficiency virus 1, read-out: EC50, mean values ± SD) was 0.0051 ± 0.003 µM, the CC50 at 72 h [4] was 3 µM and the CC50 at 72 h [5] was 3 µM. The CC50 at 7 days [6] was 74 µM and the CC50 at 72 h [7] was 5 µM.
For `Cc1cn([C@H]2C[C@H](N=[N+]=[N-])[C@@H](COP(=O)(O)OP(=O)(O)OP(=O)(O)O)O2)c(=O)[nH]c1=O` [AZT-TP], the “chain termination / full-length products, in words” value [8] was “caused increasing chain termination but decreasing full-length products”.
With `Nc1nc2c(ncn2C2COC(COP(=O)(O)OP(=O)(O)OP(=O)(O)O)O2)c(=O)[nH]1` (centres unmarked) [DXG-TP, DXG 5′-triphosphate] the “mode of RT inhibition, in words” value [9] was “competition with natural substrate”, the IC50 [9, 11] was 0.062 ± 0.007 µM and the IC50 ([9]; template/primer poly(rA).oligo(dT)12-18, substrate dTTP) was over 10 µM. The IC50 [9, 12] was 0.012 µM, the “chain termination / full-length products, in words” value [8] was “caused increasing chain termination but decreasing full-length products” and the “inhibitory effect on RT activity by band intensity, compared, in words” value ([8]; cell-free assay) was “the same as ddGTP and AZT-TP at the same concentrations, but higher than lamivudine-TP”.
For `Nc1ccn([C@H]2CC[C@@H](CO)O2)c(=O)n1` [ddC, 2′,3′-dideoxycytidine], the CC50 at 72 h [10] was 32.5 µM, the CC50 at 72 h [1] was 5 µM and the CC50 at 72 h [4] was 7 µM. The CC50 at 72 h [5] was 2 µM, the CC50 at 7 days [6] was 29 µM and the CC50 at 72 h [7] was 2 µM.
In the case of `Nc1nc2c(ncn2[C@H]2CC[C@@H](COP(=O)(O)OP(=O)(O)OP(=O)(O)O)O2)c(=O)[nH]1` [ddGTP, dideoxyguanosine triphosphate, reference compound], the IC50 [9, 11] is reported as 0.074 ± 0.008 µM and the IC50 [9, 12] is reported as 0.011 ± 0.0007 µM.
